Results: BigSolDB 2.1

CCCSc1nc(N[C@@H]2C[C@H]2c2ccc(F)c(F)c2)c2nnn([C@@H]3C[C@H](OCCO)[C@@H](O)[C@H]3O)c2n1
solubility (mole fraction)
Settings	273.15 K	278.15 K	283.15 K	288.15 K	293.15 K	298.15 K	303.15 K	308.15 K	313.15 K
in 2-butanone	0.0218	0.0269	0.0321	0.038	0.0439	0.051	0.0584	0.0673	0.0776
in acetonitrile	0.000876	0.00115	0.00144	0.00179	0.00217	0.0026	0.00309	0.00359	0.00416
in cyclohexanone	0.0265	0.0316	0.0374	0.0437	0.051	0.0578	0.0661	0.0744	0.0832
in ethanol	0.00315	0.0041	0.00503	0.00625	0.00747	0.00881	0.0105	0.0125	0.0149
in ethyl acetate	0.00409	0.00504	0.00608	0.00716	0.00855	0.0101	0.0118	0.0135	0.0157
in isobutanol	0.00148	0.00176	0.00209	0.00243	0.00284	0.00324	0.00373	0.00425	0.00484
in isopropanol	0.00251	0.00286	0.00325	0.00364	0.00404	0.00446	0.00496	0.00547	0.00599
in methanol	0.00494	0.00615	0.00741	0.0092	0.0114	0.014	0.0169	0.0203	0.0239
in n-butanol	0.00289	0.00363	0.0045	0.00542	0.00656	0.00768	0.00895	0.0103	0.0118
in n-octanol	0.0021	0.00233	0.00263	0.00292	0.00327	0.00367	0.00406	0.00456	0.0051
in n-propanol	0.00268	0.00327	0.00389	0.00462	0.00535	0.00612	0.00692	0.00776	0.00872
in toluene	3e-05	3.8e-05	4.9e-05	6.3e-05	8e-05	0.000102	0.00013	0.00016	0.000196
